Marks after values point to notes of the source that are not given here.
Legend:
[1] = Decay rate of nitroxyl contrast agent by 300 MHz CW EPR imaging (EPRI); assay type: in vivo, C3H mice; details: 1.8 μmol/g b.w. i.v., mean ± SD
Procedure: (§1) Female C3H mice were supplied by the Frederick Cancer Research Center, Animal Production (Frederick, Md.). Animals, received at six weeks of age, were housed five per cage in climate controlled circadian rhythm-adjusted rooms and were allowed food and water ad libitum. Experiments were carried out in compliance with the Guide for the Care and Use of Laboratory Animal Resources (1996), National Research Council, and approved by the National Cancer Institute Animal Care and Use Committee. Experiments were performed within 4 weeks of their arrival at the facility. Their body weight measured before the experiments was in the range 25-28 g. A squamous cell carcinoma was implanted and grown on the right hind leg for a week.
Mice were anesthetized by isoflurane (1.5%) in medical air (700 mL/min). Both tumor and normal legs were placed on special mouse holder and fixed with adhesive tapes on the divider between both legs. […]
The EPRI and MRI data were analyzed using the ImageJ software package (a public domain Java image processing program inspired by NIH Image that can be extended by plug-ins, http://rsb.info.nih.gov/ij/). T1 and T2 mappings were calculated using a plug-in (MRI analysis calculator, Karl Schmidt, HypX Laboratory, Brigham and Women's Hospital) available in ImageJ.
A time course of CW EPR imaging after injection of a nitroxyl contrast agent was determined. […]

[2] = Decay rate of nitroxyl contrast agent by 4.7 T SPGR T1-weighted MRI; assay type: in vivo, C3H mice; details: 1.5 μmol/g b.w. i.v., mean ± SD
Procedure: as §1
MRI and pulse sequence measurements were also obtained. MRI measurements were performed at 4.7 T controlled with ParaVision®3.0.1 (Bruker BioSpin MRI GmbH, Rheinstetten, Germany). […]
The EPRI and MRI data were analyzed using the ImageJ software package (a public domain Java image processing program inspired by NIH Image that can be extended by plug-ins, http://rsb.info.nih.gov/ij/). T1 and T2 mappings were calculated using a plug-in (MRI analysis calculator, Karl Schmidt, HypX Laboratory, Brigham and Women's Hospital) available in ImageJ. […]

[3] = Decay rate of nitroxyl contrast agent by in vivo 700 MHz EPR spectroscopy with surface coil (EPRS); design: species or system C3H mice; details: linear part 7.5-20 min, mean ± SD
Procedure: as §1
In vivo EPR spectroscopic measurement of the nitroxyl probe were obtained. Mice were anesthetized and placed on special mouse holder and fixed with adhesive tapes. The single loop surface coil (7.3 mm i.d.) was placed on the normal or the tumor leg. EPR signal was measured by CW EPR at 700 MHz. EPR conditions were as follows: microwave frequency=700 MHz, microwave power=10 mW, field modulation frequency=13.5 kHz, field modulation amplitude=0.3 Gauss, time constant=0.03 s, sweep width=60 Gauss, scan time=8 s. The center line of the triplet was repeatedly obtained every 20 s for 20 min. […]

[4] = Relaxation time and relaxivity of nitroxyl contrast agents compared with Gd-DTPA; assay type: physicochemical
Excerpt: The present invention is predicated on the difference in reducing capability and provides a method of determining the redox status of a region of interest in an animal tissue, such as a tumor. By determining the redox status of a tumor it is possible to not only diagnose a tumor due to its enhanced reduction of intracellular nitroxide contrast agent, but also to determine appropriate radiation treatment fields spatially to deliver therapeutic doses of radiation, and to determine appropriate timing sequences after the administration of a nitroxide contrast agent such that the maximum difference between normal and tumor tissue with respect to the radioprotective form of the nitroxide is present in the normal tissue, thereby limiting collateral damage to the normal tissue. The T1-contrast afforded by the nitroxide class of compounds, by virtue of their paramagnetic relaxivity which is in the range of 0.2 (mM s)−1 makes it possible to use standard MRI scanners to obtain the redox information in the inventive method. Typical relaxivity and relaxation times are shown for various nitroxyl contrast agents compared with a standard contrast agent, Gd-DTPA, in Table 1. […] Without being bound to any particular theory, it is believed that the T1 relaxation of protons could be affected by paramagnetic electron spin. Therefore, a change of MRI contrast before and after administration of a nitroxyl spin probe (i.e., a nitroxide contrast agent) should reflect the amount of nitroxyl in addition to providing anatomical mapping simultaneously. Such anatomical mapping provides the ability to diagnose the existence of a tumor, determine the status of a tumor, determine borders of a radiation treatment field, determine appropriate timing and dosage for radiation treatment, as well as determining the efficacy of radiation and other forms of cancer treatment.

[5] = Nitroxyl radical decay rate in tissues, from change in MRI contrast over time; assay type: in vivo, mice; details: for Decay Rate: MRI, mean ± SD
Procedure: In the inventive method, the amount of reduced nitroxyl contrast agent (i.e., hydroxylamine) in the animal tissue is determined. This determination can be made using any suitable method. For example, MRI contrast changes and the difference in concentration of a nitroxyl contrast agent, such as 3CP, show linearity in low concentration level (i.e., below 1.5 mM). To perform T1 and T2 mapping, spin echo images can be obtained using a multi-slice multi-echo (MSME) sequence. For instance, a time sequence of the total number of SPGR images may be determined. The images can then be averaged and each image may be divided by the averaged initial image. Semi-logarithmic values of the averaged image intensity in a given region of interest can be plotted versus time after injection. The change in intensity can be determined at one or more time points after injection of a nitroxyl contrast agent. For example, changes in intensity may be made every 10 s, 20 s, 30, 40 s, 50 s, or every 1, 5, 7, 10, 15, 20 minutes, or any integer in between, after injection of a nitroxyl contrast agent. A decay rate can be obtained from the linear part of the slope after peak by the least squares method. A sample calculation of a decay rate using nitroxyl contrast agent 3CP is as follows: The spoiled gradient echo (SPGR) image intensity Mt at time t after nitroxyl contrast agent injection can be calculated using the equation:
Mt=M0×[1−EXP(−TR/T1t)]×EXP(−TE/T2)×{sin α/[1−cos α×EXP(−TR/T1t)]}.
In the above equation, MO is proton density, and a is flip angle. Tissue (or sample) T1 can change with particular time t (min.) (T1t) depending on the concentration of the 3CP (Ct). T1t[…]1/R1t and R1t=1/T1i+r1×Ct, where R1t is T1 relaxation […] t, the relaxivity r1 of 3CP is 0.17 mM^−1s-1, T1i is the initial T1 base line (intrinsic tissue T1). Ct (mM), which is the first concentration of 3CP at particular time t (min.), is calculated by assuming first order decay as indicated by the equation Ct=Cmax×EXP([…]), where ktrue is the given decay rate. Logarithmic values of the intensity change from the baseline (ie. ΔM % t=(Mt/Mi−1)×100 or ΔMt=Mt−Mi), can be plotted with time t. Mi is the intrinsic signal intensity of the tissue (or sample) calculated as Ct=0. The decay constant kMRI can be obtained from the slopes of the plots ΔM % t and ΔMt by least square fit.
Typical decay rates, determined by a change in intensity over time, are shown in Table 1 and FIG. 1 for nitroxyl contrast agents Tempol, Carbamoyl-PROXYL, Carboxyl-PROXYL in normal tissue, tumor, blood, and left and right kidney tissues. These decay rates may then be used to determine the redox status of the tissue. When a decay rate is calculated pixel-wise, redox mapping can be obtained. That is, regions showing a faster rate of decay correspond to hypoxic regions.

| SMILES | Normal Leg Decay Rate ([1]; normal leg) [min⁻¹] | Tumor Leg Decay Rate ([1]; squamous cell carcinoma leg) [min⁻¹] | Normal Leg Decay Rate ([2]; normal leg) [min⁻¹] | Tumor Leg Decay Rate ([2]; squamous cell carcinoma leg) | Normal Leg Decay Rate ([3]; normal leg) [min⁻¹] | Tumor Leg Decay Rate ([3]; squamous cell carcinoma leg) | Relaxivity [4] [mM⁻¹ s⁻¹] | relaxivity r1 ([4]; value used in sample decay-rate calculation) [mM⁻¹ s⁻¹] | Decay Rate ([5]; Blood) [min⁻¹] | Decay Rate ([5]; Left Kidney) [min⁻¹] | Decay Rate ([5]; Normal Leg) [min⁻¹] | Decay Rate ([5]; Right Kidney) [min⁻¹] | Decay Rate ([5]; Tumor Leg) | rate of decay, tumor versus normal tissue ([5]; in vivo MRI, FIG. 2) |
| --- | --- | --- | --- | --- | --- | --- | --- | --- | --- | --- | --- | --- | --- | --- |
| CC1(C)CC(C(N)=O)C(C)(C)N1[O] (stereo not drawn) [Carbamoyl-PROXYL, 3-carbamoyl-2,2,5,5-tetramethyl-1-pyrrolidine-N-oxyl] | 0.0356 ± 0.0122 | 0.0468 ± 0.0086 | 0.0766 ± 0.0070 | 0.1073 ± 0.0057* min^−1 | 0.0551 ± 0.0059 | 0.0669 ± 0.0144* min^−1 | 0.171 | 0.17 | – | – | – | – | – | – |
| CC1(C)CC(C(=O)O)C(C)(C)N1[O] (stereo not drawn) [Carboxy-PROXYL] | – | – | – | – | – | – | 0.180 | – | – | – | – | – | – | – |
| CC1(C)CC(O)CC(C)(C)N1[O] [Tempol, 2,2,6,6-tetramethyl-4-piperidinol-N-oxyl] | – | – | – | – | – | – | – | – | 1.025 ± 0.213 | 1.470 ± 0.199 | 0.319 ± 0.025 | 1.160 ± 0.333 | 1.095 ± 0.203** min^−1 | greater in tumor versus normal tissue |

Reference: patent US20090028798A1, “METHOD FOR DETERMINING REDOX STATUS OF A TISSUE” (Government of the USA, represented by the Secretary, …, priority 2005, published 2009)
